US11578092B2, “Compound for preventing or treating neurodegenerative disease and application thereof” (Shanghai Pharmaceuticals Holding Co., Ltd., priority 2018, dated 2023)

How the values were obtained:
[1] = system: neuroblastoma cells SK—N—SH cells; assay: Total Aβ level in supernatant of SK-N-SH cells (ELISA); assay type: cell-based; details: 24 hours
Protocol: Aβ is the main pathogenic protein of AD. The inventors investigated whether PL402 has an effect on inhibiting Aβ production by detecting the level of Aβ in neuroblastoma cells SK—N—SH cells (which can secrete Aβ).
Culture of SK—N—SH and detection of Aβ: SK—N—SH cells were cultured in DMEM, plated in a 24-well plate and cultured for 24 hours. PL402 (0, 10, 30, 100, or 300 μM) was added, and then incubated for 24 hours. The supernatant was collected and the total Aβ protein level was detected by ELISA.

mouse BV-2 cells = assay: Expression of inflammatory factors in LPS-stimulated BV-2 cells (QPCR); assay type: cell-based; details: LPS 300 ng/ml, compound 10-300 μM, 24 hours
Protocol: Neuroinflammation in the brain of AD is one of the causes of cognitive decline. Microglia are key cells that mediate neuroinflammation. The inventors studied whether PL402 is effective in inhibiting neuroinflammation by detecting the expression of inflammatory factors on mouse BV-2 cells.
BV-2 cells culture and stimulation: BV-2 cells were cultured in DMEM, plated in a 24-well plate and cultured for 24 hours. Then PL402 (0, 10, 30, 100, or 300 μM) and LPS (300 ng/ml) were added, and then incubated for 24 hours. RNA was extracted with Trizol, and the expression of related inflammatory factors was detected by QPCR.

[2] = system: APP/PS1 transgenic male mice (AD mice); assay: Morris water maze test in AD mice; assay type: in vivo; details: 50 mg/kg daily intragastric, 90 days; for learning and memory abilities of AD mice after administration: Morris water maze
Protocol: Twenty 5-6-month-old APP/PS1 transgenic male mice (AD mice) were selected and divided into a model group and a polysaccharide administration group according to the random number table method. PL402 was administered daily by intragastric administration (50 mg/kg), and 10 non-transgenic mice were used in a negative control group (without administration). After 90 days of consecutive administration, Morris water maze behavior test was used to detect the effect of PL402 on the learning and cognitive functions of APP/PS1 mice.
In this experiment, a classic Morris water maze test procedure was used, which includes a place navigation test and a space exploration test. The duration of the experiment was 7 days in total, and the space exploration test was introduced at Days 4 and 7.
The selection of animals and the “Morris water maze experiment” was performed as described in Example 3, to detect the effect of PL404 on the animal learning and memory abilities.

[3] = system: human neural progenitor cell (differentiated by humanized iPSC); assay: EdU incorporation, proliferation of human neural progenitor cells; assay type: cell-based; details: dosage 0, 1, 3, 10, 30 or 100 μM, vs untreated control
Protocol: The inventors investigated whether PL404 has the effect on promoting proliferation by detecting the EdU incorporation of a human neural progenitor cell (differentiated by humanized iPSC). The dosage of PL404 was 0, 1, 3, 10, 30, or 100 μM.
The method similar to that in Example 7 was used, except that compound PL404 was replaced by PL405, and by detecting the EdU incorporation of human neural progenitor cells, whether PL405 has the effect on promoting proliferation was investigated.

SMILES	production of Aβ (total Aβ protein level) ([1]; compound 10-300 μM, ELISA of supernatant)	concentration at which the inhibition of Aβ production is most desirable ([1]; tested 0, 10, 30, 100, 300 μM) [µM]	expression of inflammatory factor IL-1β (mouse BV-2 cells)	expression of inflammatory factor IL-6 (mouse BV-2 cells)	learning and memory abilities of AD mice after administration [2]	escape latency (latency to reach the platform) compared with the model group ([2]; place navigation test, 50 mg/kg)	increase of human neural progenitor cell proliferation level compared with the control group [3]
COc1cc(/C=C/C(=O)O[C@@H]2OC(C)[C@H](O[C@@H]3OC(C)[C@H](O)C(O)C3O)C(O)C2O)ccc1O (stereo partly drawn) [PL402]	significantly inhibit	100	significantly inhibit	significantly inhibit	significantly improved	statistically significant decrease	–
COc1cc(/C=C/C(=O)OC2C(C)OC(OC3C(C)OC(O)C4OC(C)(C)OC34)C(O)C2O)ccc1O (stereo not drawn) [PL404]	–	–	–	–	significantly improved	–	about 30%
COc1cc(/C=C/C(=O)OC2C(C)OC(OC3C(C)OC(O)C(O)C3O)C(O)C2O)ccc1O (stereo not drawn) [PL405]	–	–	–	–	–	–	about 60%
